In PubChem BioAssay AID2740 (NMMLSC, 2010):
Activity calls are given as the source filed them.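 The calls were made as follows: active = compounds whose fitted half-maximal concentration for changing the GFP signal is at or below a set limit; inactive = the rest.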

Test: TOR pathway RPL19A-GFP modulators, concentration series – cell-based, S. cerevisiae, flow cytometry, MLPCN hits, dose response (AID 2740);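 also: background is signal of the same compound in parental non-GFP s288c yeast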
Conditions: S. cerevisiae RPL19A-GFP strain, flow cytometry fluorescence, 3 h; at 33 µM (top of the series)
In the case of Cc1ccc2c(nc3s/c(=C\c4ccc(-c5ccccc5C(=O)O)o4)c(=O)n32)c1C, the GFP fluorescence, lower = active (kMESF (background-subtracted)) is reported as 53.5 (inactive).
In the case of Cc1ccc(C(=O)NNC(=S)NC(=O)c2ccco2)cc1, the GFP fluorescence, lower = active (kMESF (background-subtracted)) is reported as 49.1 (inactive).
In the case of O=C(/C=C/c1ccccc1Cl)c1ccccc(=O)c1O, the GFP fluorescence, lower = active (kMESF (background-subtracted)) is reported as 5.26 (inactive).
With Cc1c(NC2=C(Cl)C(=O)N(c3ccccc3Cl)C2=O)c(=O)n(-c2ccccc2)n1C the GFP fluorescence, lower = active (kMESF (background-subtracted)) was 38.7 (inactive).
For CC1(C(=O)NC(=S)NNC(=O)c2ccncc2)CCCCC1, the GFP fluorescence, lower = active (kMESF (background-subtracted)) was 39.9 (inactive).
With CN1C(=O)/C(=N\OC(=O)c2cccc3ccccc23)c2ccccc21 the GFP fluorescence, lower = active (kMESF (background-subtracted)) was 42.9 (inactive).
In the case of CCC1(c2ccccc2)ON(c2c(Br)cccc2Br)C1=O (stereo unspecified), the GFP fluorescence, lower = active (kMESF (background-subtracted)) is reported as 34.8 (inactive).
For O=C1CCN(S(=O)(=O)c2ccccc2)CCN1CCOCc1ccc(F)cc1, the GFP fluorescence, lower = active (kMESF (background-subtracted)) was 36.9 (inactive).
In the case of C=CCn1c(C)c(/C=C/c2cc[n+](C)cc2)c2ccccc21, the GFP fluorescence, lower = active (kMESF (background-subtracted)) is reported as 52.8 (inactive).
With COc1ccc(N=Cc2nc(-c3ccccc3)oc2OC(=O)c2ccccc2)cc1 the GFP fluorescence, lower = active (kMESF (background-subtracted)) was 46.2 (inactive).
For Cc1cc(C)nc(S/C=C/C(=O)c2ccccc2)n1, the GFP fluorescence, lower = active (kMESF (background-subtracted)) was 47.4 (inactive).
For C[C@@]12C(=O)OC(=O)[C@]1(C)C1CCC2O1, the GFP fluorescence, lower = active (kMESF (background-subtracted)) was 25.9 (inactive).
In the case of CCC(=O)Nc1ccc(NC(=O)c2cc3ccccc3o2)c(OC)c1, the GFP fluorescence, lower = active (kMESF (background-subtracted)) is reported as 40.4 (inactive).
With CC(=O)CSc1ncnc2c1cnn2-c1ccccc1 the GFP fluorescence, lower = active (kMESF (background-subtracted)) was 37.7 (inactive).
With O=C1NC(=O)N(c2ccccc2)C(=O)/C1=C/c1ccc(Sc2ccccc2)o1 the GFP fluorescence, lower = active (kMESF (background-subtracted)) was 37.1 (inactive).
In the case of COc1ccc(N2C(=O)C(Cl)=C(Oc3cccc(OC)c3)C2=O)cc1, the GFP fluorescence, lower = active (kMESF (background-subtracted)) is reported as 45.6 (inactive).
For O=C1ON=C(c2ccccc2)/C1=C/c1ccco1, the GFP fluorescence, lower = active (kMESF (background-subtracted)) was 28.4 (inactive).
For Oc1ccc(COCc2ccccc2)c2cccnc12, the GFP fluorescence, lower = active (kMESF (background-subtracted)) was 46.5 (inactive).
With O=C(Nc1ccc(O)cc1)C1CCCN1S(=O)(=O)c1ccc(F)cc1 (stereo unspecified) the GFP fluorescence, lower = active (kMESF (background-subtracted)) was 45 (inactive).
In the case of CCOc1ccc(N2C(=O)C(Cl)=C(Nc3ccccc3O)C2=O)cc1, the GFP fluorescence, lower = active (kMESF (background-subtracted)) is reported as 45.1 (inactive).
For Cc1c(NC2=C(Cl)C(=O)N(c3ccccc3)C2=O)c(=O)n(-c2ccccc2)n1C, the GFP fluorescence, lower = active (kMESF (background-subtracted)) was 43.6 (inactive).
For CC[C@]1(c2ccccc2C)ON(c2ccccc2C(F)(F)F)C1=O, the GFP fluorescence, lower = active (kMESF (background-subtracted)) was 40 (inactive).
In the case of CCOC(=O)CSC1=NC(=O)/C(=C/c2ccc(OC)cc2)S1, the GFP fluorescence, lower = active (kMESF (background-subtracted)) is reported as 43.8 (inactive).
With O=c1[nH]c(-c2ccccn2)nc(C(F)(F)F)c1Br the GFP fluorescence, lower = active (kMESF (background-subtracted)) was 30.1 (inactive).
For CCOC(=O)CS(=O)(=O)c1nc(-c2ccccc2)cc(C(F)(F)F)n1, the GFP fluorescence, lower = active (kMESF (background-subtracted)) was 44.1 (inactive).
For CCN(CC(=O)Nc1cc(S(=O)(=O)N2CCOCC2)ccc1Cl)Cc1ccccc1, the GFP fluorescence, lower = active (kMESF (background-subtracted)) was 43.2 (inactive).
With CCC(=O)Oc1oc(-c2ccccc2)nc1C=Nc1ccc(C)cc1 the GFP fluorescence, lower = active (kMESF (background-subtracted)) was 40.5 (inactive).
In the case of Cc1ccc(/C(N)=N/OC(=O)c2ccc(F)cc2)cc1, the GFP fluorescence, lower = active (kMESF (background-subtracted)) is reported as 43.7 (inactive).
In the case of Cc1nn(C)c(C)c1N1C(=O)c2cccc3c(Br)ccc(c23)C1=O, the GFP fluorescence, lower = active (kMESF (background-subtracted)) is reported as 40.3 (inactive).
In the case of Cc1ccccc1OCC(=O)NNC(=S)NC(=O)c1ccco1, the GFP fluorescence, lower = active (kMESF (background-subtracted)) is reported as 44.1 (inactive).
In the case of O=C1C(Cl)=C(NCCc2ccccc2)C(=O)N1CCc1ccccc1, the GFP fluorescence, lower = active (kMESF (background-subtracted)) is reported as 43.1 (inactive).
In the case of Oc1c(CN2CCN(c3ccccc3)CC2)cc(Br)c2cccnc12, the GFP fluorescence, lower = active (kMESF (background-subtracted)) is reported as 38.4 (inactive).
With Cc1ccc(C(c2cc(Cl)c3cccnc3c2O)N2CCN(C)CC2)cc1 (stereo unspecified) the GFP fluorescence, lower = active (kMESF (background-subtracted)) was 29.8 (inactive).
For O=C(c1ccc(Cl)cc1)N1CCN(c2cccc3[nH]ccc23)CC1, the GFP fluorescence, lower = active (kMESF (background-subtracted)) was 41.9 (inactive).
With Cc1ccc(C(CC(=O)O)NC(=O)c2ccc(S(=O)(=O)N3CC(C)OC(C)C3)cc2)cc1 (stereo unspecified) the GFP fluorescence, lower = active (kMESF (background-subtracted)) was 39.2 (inactive).
With O=C(c1ccc(Cl)c([N+](=O)[O-])c1)N1CCN(c2ccccc2)CC1 the GFP fluorescence, lower = active (kMESF (background-subtracted)) was 46.4 (inactive).
In the case of CC(Oc1cc2oc(=O)c3c(c2cc1Cl)CCC3)C(=O)NCCN1CCOCC1 (stereo unspecified), the GFP fluorescence, lower = active (kMESF (background-subtracted)) is reported as 37.8 (inactive).
With O=[N+]([O-])c1ccc(Sc2nc3ccccc3o2)c([N+](=O)[O-])c1 the GFP fluorescence, lower = active (kMESF (background-subtracted)) was 45.5 (inactive).
For COc1cc(/C=C/c2ccc3c(Br)cc(Br)c(O)c3n2)ccc1O, the GFP fluorescence, lower = active (kMESF (background-subtracted)) was 29.4 (inactive).
For CC(C)[C@]1(c2ccccc2)ON(c2ccccc2C(F)(F)F)C1=O, the GFP fluorescence, lower = active (kMESF (background-subtracted)) was 36 (inactive).
For C/C(=N\NC(=O)c1cc2ccccc2cc1O)c1ccccn1, the GFP fluorescence, lower = active (kMESF (background-subtracted)) was 45.5 (inactive).
